PMC6814236, “Monitoring and characterizing soluble and membrane-bound ectonucleotidases CD73 and CD39” (PLoS ONE, 2019)

Tested on: T1, membrane-associated CD39 of Farage cells
T1 construct: endogenous in cells; host or cells: Farage
Assay: Cell-based membrane-associated CD39 activity
Design: species or system human
Conditions: 50μM inhibitor, Farage cells 200K per ml, 5 μM ATP, 37°C
Method: For CD39 activity, since it uses both ADP and ATP, we determined its activity using 5 μM final concentration each, as substrate as described above. In a separate plate or microcentrifuge tube, a 25μl aliquots were withdrawn from each well at desired time point and delivered into an assay solid white plate (Corning Costar 3912 or equivalent).
For ADP as substrate, detection of remaining ADP was carried out by preparing AMP Detection Solution (adding 10μl AMP-Glo™ Reagent II to one-ml of Kinase-Glo® One Solution, gently mixing well by inverse tube couple times). To the 25 μl aliquoted from the medium supernatant that was cooled down to room temperature, 25μl of AMP Detection Solution is added to each well, mixed well and incubated for 60min at 23°C, the plates were read using luminometer.
For ATP as substrate, detection of remaining ATP, was carried out using 25μl withdrawn from the medium supernatant that was cooled down to room temperature and 25μl of Kinase-Glo® One Solution were added to each well, mixed well and incubated for 10min at 23°C, then the plate was read using luminometer.
• B Suspension cells. Cells were harvested and washed two times with HBSS by centrifugation at 1,000 rpm at room temperature for 8~10min, discarding the supernatant and cell pellets were diluted to a desired cell number per ml before experiments. […]

[Na+].[Na+].[Na+].[Na+].[Na+].[Na+].[O]=[W](=[O])([O-])[O-].[O]=[W](=[O])([O-])[O-].[O]=[W](=[O])([O-])[O-].[O]=[W](=[O])=[O].[O]=[W](=[O])=[O].[O]=[W](=[O])=[O].[O]=[W](=[O])=[O].[O]=[W](=[O])=[O].[O]=[W](=[O])=[O].[O]=[W](=[O])=[O].[O]=[W](=[O])=[O].[O]=[W](=[O])=[O] [POM1, Sodium metatungstate]
inhibition of membrane-associated CD39 activity: inhibited
